US20230390251A1, “METHODS OF TREATING RIBONUCLEOTIDE REDUCTASE-RELATED DISEASES WITH A RIBONUCLEOTIDE REDUCTASE INHIBITOR” (TAIHO PHARMACEUTICAL CO., LTD., priority 2020, published 2023)

Assays:
CFPAC-1 cells = test: Cell proliferation assay in CFPAC-1 cells treated with siRNA against SLFN11; assay type: cell-based; details: pancreatic cancer cell line CFPAC-1, siSLFN11 vs siControl, 3 days of exposure
Procedure: (§1) A673 cells, NCI-H460 cells and CFPAC-1 cells were transfected with 1 nM siRNAs for 24 h using Lipofectaminet®RNAiMAX Reagent (Thermo Fisher Scientific Inc.) and then re-seeded onto a 96-well plate for cell proliferation assay and caspase induction assay and onto dishes for immunoblotting analysis. siRNAs were obtained from Thermo Fisher Scientific Inc. as follows: Silencer® Select Negative Control #1 siRNA (#4390843 used as siControl), SLFN11 Silencer® Select Pre-designed siRNA (#s40703 used as siSLFN11-1, #s40704 as siSLFN11-2, and #s40702 as siSLFN11-3).
Cell proliferation assay was performed in accordance with conventional methods, available in Hasako, et al., ibid. Briefly, cells treated with siRNAs for 24 h were plated onto 96 well plate and incubated for 24 h, followed by 3 days of exposure to the compound A. After compound exposure, viable cells were detected by using the CellTiter-Glo luminescent cell viability assay (Promega).

[1] = system: 11 sarcoma cell lines listed in Table 1; test: Cell proliferation assay (CellTiter-Glo) in 11 sarcoma cell lines, correlated with SLFN11 mRNA expression; assay type: cell-based; details: 100 micro mol/L Compound A, 3 days of exposure, Pearson's correlation (P<0.05)
Procedure: Cell proliferation assay was performed in accordance with conventional methods, available in Hasako. S., et al. Mol Cancer Ther 17, 1648-1658 (2018). Briefly, cells were plated and incubated for 1 day, followed by 3 days of exposure to the compound. After exposure to Compound A, viable cells were detected by using the CellTiter-Glo luminescent cell viability assay (Promega). The experiment was performed in triplicates.
Correlation analysis of SLFN11 expression and Compound A cytotoxicity was performed using Pearson's correlation coefficient (P<0.05) in JMP 13 software. The gene expression data of cell lines were available online CCLE (http://www.broadinstitute.org/ccle/home). Compound A cytotoxicity data from 11 cell lines in Table 1 were used for correlation analysis (data for correlation was not shown).
The correlation between SLFN11 mRNA expression and the relative growth percent of cells at 100 micro mol/L treatment by Compound A was analyzed in 11 sarcoma cell lines listed in Table 1.

[2] = Body weight change as index of toxicity in MV-4-11 tumor-bearing nude mice; assay type: in vivo
A673 cells = test: Caspase-Glo 3/7 caspase induction assay in A673 cells treated with siRNA against SLFN11; assay type: cell-based; details: 10 micro mol/L, 24 h; A673 cells transfected with siRNA against SLFN11
Procedure: as §1
Caspase induction assay was performed in accordance with conventional methods, available in Hasako., et al., ibid. Briefly, the cells with siRNAs for 24 h were seeded onto 96 well plate, incubated for 24 h, and then treated with Compound A for 24 h. Caspase induction was detected by using the Caspase-Glo 3/7 assay (Promega).

Cc1ccc(F)c([C@@H](C)[C@H](NS(=O)(=O)c2ccc(Cl)cc2C(N)=O)c2n[nH]c(=O)o2)c1C [Compound A, 5-chloro-2-(N-((1S,2R)-2-(6-fluoro-2,3-dimethylphenyl)-1-(5-oxo-4,5-dihydro-1,3,4-oxadiazol-2-yl)propyl)sulfamoyl)benzamide]
effect of SLFN11 knockdown with siRNA on the cytotoxic effect (CFPAC-1 cells): SLFN11 knockdown significantly suppressed the cytotoxic effect
correlation between SLFN11 mRNA expression and relative cell growth (%) [1]: a significant correlation
recovery indicated by BW change %, Group 3QW1-1 compared with Group C-1 ([2]; 3QW (consecutive) 233 mg/kg/day vs continuous 100 mg/kg/day, total dosage 1400 mg/kg, Day 15, t-test p<0.05): better with a statistically significant difference relative to Group C-1
recovery indicated by BW change %, Group 3QW1-2 compared with Group C-2 ([2]; 3QW (consecutive) 350 mg/kg/day vs continuous 150 mg/kg/day, total dosage 2100 mg/kg, Day 15, t-test p<0.05): better with a statistically significant difference relative to Group C-2
recovery indicated by BW change %, Group 3QW2-1 compared with Group C-1 ([2]; 3QW (every other day) 233 mg/kg/day vs continuous 100 mg/kg/day, total dosage 1400 mg/kg, Day 15, t-test p<0.05): better with a statistically significant difference relative to Group C-1
recovery indicated by BW change %, Group 3QW2-2 compared with Group C-2 ([2]; 3QW (every other day) 350 mg/kg/day vs continuous 150 mg/kg/day, total dosage 2100 mg/kg, Day 15, t-test p<0.05): better with a statistically significant difference relative to Group C-2
body weight loss (BW change %) ([2]; 3QW Dosing Group 1, 233 or 350 mg/kg/day orally Days 1-3 and 8-10): body weight loss was observed
body weight loss (BW change %) ([2]; 3QW Dosing Group 2, 233 or 350 mg/kg/day orally Days 1, 3, 5, 8, 10 and 12): body weight loss was observed
BW change %, Group 5QW2-1 compared with Group C-1 ([2]; 5QW (2 on/1 off/3 on/1 off) 140 mg/kg/day vs continuous 100 mg/kg/day, total dosage 1400 mg/kg, Day 15): a statistically significant difference could not be observed
recovery indicated by BW change %, Group 5QW2-2 compared with Group C-2 ([2]; 5QW (2 on/1 off/3 on/1 off) 210 mg/kg/day vs continuous 150 mg/kg/day, total dosage 2100 mg/kg, Day 15, t-test p<0.05): better with a statistically significant difference relative to Group C-2
recovery indicated by BW change %, Group 5QW1-1 compared with Group C-1 ([2]; 5QW (consecutive) 140 mg/kg/day vs continuous 100 mg/kg/day, total dosage 1400 mg/kg, Day 15, t-test p<0.05): better with a statistically significant difference relative to Group C-1
recovery indicated by BW change %, Group 5QW1-2 compared with Group C-2 ([2]; 5QW (consecutive) 210 mg/kg/day vs continuous 150 mg/kg/day, total dosage 2100 mg/kg, Day 15, t-test p<0.05): better with a statistically significant difference relative to Group C-2
body weight loss (BW change %) ([2]; 5QW Dosing Group 1, 140 or 210 mg/kg/day orally Days 1-5 and 8-12): body weight loss was observed
body weight loss (BW change %) ([2]; 5QW Dosing Group 2, 140 or 210 mg/kg/day orally Days 1-2, 4-6, 8-9 and 11-13): body weight loss was observed
body weight loss (BW change %) ([2]; Continuous Dosing Group, 100 or 150 mg/kg/day orally once daily Day 1 to Day 14): body weight loss was observed
BW change %, Group QOD-1 compared with Group C-1 ([2]; QOD 200 mg/kg/day vs continuous 100 mg/kg/day, total dosage 1400 mg/kg): a statistically significant difference could not be observed
recovery indicated by BW change %, Group QOD-2 compared with Group C-2 ([2]; QOD 300 mg/kg/day vs continuous 150 mg/kg/day, total dosage 2100 mg/kg, Day 15, t-test p<0.05): better with a statistically significant difference compared with Group C-2
body weight loss (BW change %) ([2]; QOD Dosing Group, 200 or 300 mg/kg/day orally every other day for two weeks): body weight loss was observed
recovery indicated by BW change %, Group QW-1 compared with Group C-1 ([2]; QW 700 mg/kg/day vs continuous 100 mg/kg/day, total dosage 1400 mg/kg, Day 15, t-test p<0.05): better with a statistically significant difference than Group C-1
recovery indicated by BW change %, Group QW-2 compared with Group C-2 ([2]; QW 1050 mg/kg/day vs continuous 150 mg/kg/day, total dosage 2100 mg/kg, Day 15, t-test p<0.05): better with Group QW-2 having a statistically significant difference relative to Group C-2
body weight loss (BW change %) ([2]; QW Dosing Group, 700 or 1050 mg/kg/day orally once per week for two weeks): body weight loss was observed
compound-induced caspase-3/7 activation after SLFN11 knockdown (A673 cells): suppression
